In brackets after ≈: the same amount, converted by molar mass.
What was measured:
[1] = tested on: Mycobacterium tuberculosis H37 Rv; test: Repeated treatment test of mice infected with tuberculosis, survival on fortieth day (groups of 10 mice); settings: oral, 200 μg/mouse
[2] = tested on: Escherichia coli IFO 12734; test: Antibacterial activity, standard method of Japan Society of Chemotherapy (Table 2); type: cell-based; settings: IFO12734, read-out: Minimal inhibitory concentration
From the text: (§1) Derivative No. in Table 2 corresponds to derivative No. in Table 1.

[3] = tested on: Micrococcus luteus IFO 12708; test: as above; type: cell-based; settings: IFO12708, read-out: Minimal inhibitory concentration
From the text: as §1

[4] = tested on: Staphylococcus aureus IFO 12732; test: as above; type: cell-based; settings: IFO12732, read-out: Minimal inhibitory concentration
From the text: as §1

[5] = tested on: Klebsiella pneumoniae IFO 3512; test: as above; type: cell-based; settings: IFO3512, read-out: Minimal inhibitory concentration
From the text: as §1

[6] = tested on: Bacillus subtilis IFO 3134; test: as above; type: cell-based; settings: IFO3134, read-out: Minimal inhibitory concentration
From the text: as §1

[7] = tested on: Mycobacterium smegmatis ATCC 607; test: as above; type: cell-based; settings: Mycolicibacterium smegmatis, ATCC607, read-out: Minimal inhibitory concentration
From the text: as §1

[8] = tested on: Mycobacterium tuberculosis H37 Rv; test: Antibacterial activity against a tubercle bacillus, two-fold dilution in Kirchner liquid medium; settings: Kirchner medium with 10% bovine serum, 37° C., 4 weeks
[9] = Plasma concentration after oral administration to mice, bioassay with Micrococcus luteus IFO 12708; type: in vivo, ddY male mice; settings: mouse, 20 mg/kg
Procedure: The derivatives No. 4 and No. 11 shown in Table 1 were orally administered to ddY male mice (7 weeks), respectively, in a dose of 20 mg/kg. The concentration of the test compound in the plasma was measured by a bioassay method employing Micrococcus luteus IFO 12708 as an assay bacterium according to a usual manner. The results are as follows: As for the derivative No. 4, the concentrations in the plasma after 1 hour, 3 hours, 5 hours and 8 hours from the administration were 17.0 μg/ml, 13.3 μg/ml, 14.5 μg/ml, 4.2 μg/ml, respectively. As for the derivative No. 11, the concentrations in the plasma after 1 hour, 3 hours, 5 hours and 8 hours from the administration were 17.3 μg/ml, 16.2 μg/ml, 13.8 μg/ml and 10.1 μg/ml, respectively.

| SMILES | Survival rate [1] | dead mice [1] | MIC [2] | MIC [3] | MIC [4] | MIC [5] | MIC [6] | MIC [7] | Minimal inhibitory concentration ([8]; Table 3) | concentration at 1 h ([9]; 1 hour) | concentration at 3 h ([9]; 3 hours) | concentration at 5 h ([9]; 5 hours) | concentration at 8 h ([9]; 8 hours) | Minimal inhibitory concentration ([8]; Table 4) |
| --- | --- | --- | --- | --- | --- | --- | --- | --- | --- | --- | --- | --- | --- | --- |
| COC1C=COC2(C)Oc3c(C)c(O)c4c(=O)c(c5oc6c(OC(C)C)c(N7CCN(CC(C)C)CC7)ccc6nc-5c4c3C2=O)NC(=O)C(C)=CC=CC(C)C(O)C(C)C(O)C(C)C(OC(C)=O)C1C (stereo not drawn) [Derivative No. 13] | 100% | there was not observed any dead mouse | > 10 µg/mL | 0.16 µg/mL (≈ 0.163 µM) | 0.04 µg/mL (≈ 0.0407 µM) | > 10 µg/mL | 0.16 µg/mL (≈ 0.163 µM) | 1.25 µg/mL (≈ 1.27 µM) | 0.07 µg/mL (≈ 0.0712 µM) |  |  |  |  |  |
| COc1c(N2CCN(CC(C)C)CC2)cc(C)c2nc3c4c5c6c(C)c(O)c4c(=O)c(c-3oc12)NC(=O)C(C)=CC=CC(C)C(O)C(C)C(O)C(C)C(OC(C)=O)C(C)C(OC)C=COC(C)(O6)C5=O (stereo not drawn) [Derivative No. 17] | 100% | there was not observed any dead mouse | > 10 µg/mL | 0.08 µg/mL (≈ 0.0825 µM) | ≤ 0.02 µg/mL | > 10 µg/mL | 0.04 µg/mL (≈ 0.0413 µM) | 1.25 µg/mL (≈ 1.29 µM) | 0.07 µg/mL (≈ 0.0722 µM) |  |  |  |  |  |
| COC1C=COC2(C)Oc3c(C)c(O)c4c(=O)c(c5oc6c(OCC(C)C)c(N7CCN(CC(C)C)CC7)ccc6nc-5c4c3C2=O)NC(=O)C(C)=CC=CC(C)C(O)C(C)C(O)C(C)C(OC(C)=O)C1C (stereo not drawn) [Derivative No. 14] |  |  | > 10 µg/mL | 0.31 µg/mL (≈ 0.311 µM) | 0.08 µg/mL (≈ 0.0802 µM) | > 10 µg/mL | 0.08 µg/mL (≈ 0.0802 µM) | 0.63 µg/mL (≈ 0.632 µM) |  |  |  |  |  |  |
| CCOc1c(N2CCN(C(C)C)CC2)ccc2nc3c4c5c6c(C)c(O)c4c(=O)c(c-3oc12)NC(=O)C(C)=CC=CC(C)C(O)C(C)C(O)C(C)C(OC(C)=O)C(C)C(OC)C=COC(C)(O6)C5=O (stereo not drawn) [Derivative No. 7] |  |  | 5 µg/mL (≈ 5.23 µM) | ≤ 0.02 µg/mL | ≤ 0.02 µg/mL | 5 µg/mL (≈ 5.23 µM) | ≤ 0.02 µg/mL | 1.25 µg/mL (≈ 1.31 µM) | 0.017 µg/mL (≈ 0.0178 µM) |  |  |  |  |  |
| COC1C=COC2(C)Oc3c(C)c(O)c4c(=O)c(c5oc6c(OC(C)C)c(N7CCCC7)ccc6nc-5c4c3C2=O)NC(=O)C(C)=CC=CC(C)C(O)C(C)C(O)C(C)C(OC(C)=O)C1C (stereo not drawn) [Derivative No. 11] |  |  | > 10 µg/mL | 0.04 µg/mL (≈ 0.0439 µM) | ≤ 0.02 µg/mL | > 10 µg/mL | 0.08 µg/mL (≈ 0.0877 µM) | 1.25 µg/mL (≈ 1.37 µM) | 0.017 µg/mL (≈ 0.0186 µM) | 17300 ng/mL | 16200 ng/mL | 13800 ng/mL | 10100 ng/mL |  |
| CCN1CCN(c2ccc3nc4c5c6c7c(C)c(O)c5c(=O)c(c-4oc3c2OC(C)C)NC(=O)C(C)=CC=CC(C)C(O)C(C)C(O)C(C)C(OC(C)=O)C(C)C(OC)C=COC(C)(O7)C6=O)CC1 (stereo not drawn) [Derivative No. 12] |  |  | 5 µg/mL (≈ 5.23 µM) | ≤ 0.02 µg/mL | ≤ 0.02 µg/mL | 5 µg/mL (≈ 5.23 µM) | ≤ 0.02 µg/mL | 1.25 µg/mL (≈ 1.31 µM) | 0.017 µg/mL (≈ 0.0178 µM) |  |  |  |  |  |
| CO[C@H]1/C=C/O[C@@]2(C)Oc3c(C)c(O)c4c(O)c(c(/C=N/N5CCN(C)CC5)c(O)c4c3C2=O)NC(=O)/C(C)=C\C=C\[C@H](C)[C@H](O)[C@@H](C)[C@@H](O)[C@@H](C)[C@H](OC(C)=O)[C@@H]1C [Rifampicin, reference compound] | 80% |  | > 10 µg/mL | ≤ 0.02 µg/mL | ≤ 0.02 µg/mL | 5 µg/mL (≈ 6.08 µM) | 0.08 µg/mL (≈ 0.0972 µM) | 10 µg/mL (≈ 12.2 µM) | 0.6 µg/mL (≈ 0.729 µM) |  |  |  |  | 0.3 µg/mL (≈ 0.365 µM) |
| CCCOc1c(N2CCN(CC(C)C)CC2)ccc2nc3c4c5c6c(C)c(O)c4c(=O)c(c-3oc12)NC(=O)C(C)=CC=CC(C)C(O)C(C)C(O)C(C)C(OC(C)=O)C(C)C(OC)C=COC(C)(O6)C5=O (stereo not drawn) [Derivative No. 10] |  |  | > 10 µg/mL | 0.16 µg/mL (≈ 0.163 µM) | 0.04 µg/mL (≈ 0.0407 µM) | > 10 µg/mL | 0.16 µg/mL (≈ 0.163 µM) | 1.25 µg/mL (≈ 1.27 µM) | 0.07 µg/mL (≈ 0.0712 µM) |  |  |  |  |  |
| COc1c(N2CCCC2)ccc2nc3c4c5c6c(C)c(O)c4c(=O)c(c-3oc12)NC(=O)C(C)=CC=CC(C)C(O)C(C)C(O)C(C)C(OC(C)=O)C(C)C(OC)C=COC(C)(O6)C5=O (stereo not drawn) [Derivative No. 1] |  |  | > 10 µg/mL | 0.04 µg/mL (≈ 0.0452 µM) | ≤ 0.02 µg/mL | > 10 µg/mL | 0.16 µg/mL (≈ 0.181 µM) | 2.5 µg/mL (≈ 2.83 µM) | 0.017 µg/mL (≈ 0.0192 µM) |  |  |  |  |  |
| CCOc1c(N2CCN(CC)CC2)ccc2nc3c4c5c6c(C)c(O)c4c(=O)c(c-3oc12)NC(=O)C(C)=CC=CC(C)C(O)C(C)C(O)C(C)C(OC(C)=O)C(C)C(OC)C=COC(C)(O6)C5=O (stereo not drawn) [Derivative No. 6] |  |  | 5 µg/mL (≈ 5.31 µM) | ≤ 0.02 µg/mL | ≤ 0.02 µg/mL | 2.5 µg/mL (≈ 2.66 µM) | ≤ 0.02 µg/mL | 0.63 µg/mL (≈ 0.669 µM) |  |  |  |  |  | 0.008 µg/mL (≈ 0.0085 µM) |
| COc1c(N2CCN(C)CC2)cc(C)c2nc3c4c5c6c(C)c(O)c4c(=O)c(c-3oc12)NC(=O)C(C)=CC=CC(C)C(O)C(C)C(O)C(C)C(OC(C)=O)C(C)C(OC)C=COC(C)(O6)C5=O (stereo not drawn) [Derivative No. 16] |  |  | 5 µg/mL (≈ 5.39 µM) | ≤ 0.02 µg/mL | ≤ 0.02 µg/mL | 5 µg/mL (≈ 5.39 µM) | ≤ 0.02 µg/mL | 1.25 µg/mL (≈ 1.35 µM) |  |  |  |  |  |  |
| COc1c(N2CCN(C)CC2)ccc2nc3c4c5c6c(C)c(O)c4c(=O)c(c-3oc12)NC(=O)C(C)=CC=CC(C)C(O)C(C)C(O)C(C)C(OC(C)=O)C(C)C(OC)C=COC(C)(O6)C5=O (stereo not drawn) [Derivative No. 2] |  |  | 2.5 µg/mL (≈ 2.74 µM) | ≤ 0.02 µg/mL | ≤ 0.02 µg/mL | 2.5 µg/mL (≈ 2.74 µM) | ≤ 0.02 µg/mL | 1.25 µg/mL (≈ 1.37 µM) | 0.15 µg/mL (≈ 0.164 µM) |  |  |  |  |  |
| COc1c(N2CCCC2)cc(C)c2nc3c4c5c6c(C)c(O)c4c(=O)c(c-3oc12)NC(=O)C(C)=CC=CC(C)C(O)C(C)C(O)C(C)C(OC(C)=O)C(C)C(OC)C=COC(C)(O6)C5=O (stereo not drawn) [Derivative No. 15] |  |  | > 10 µg/mL | 0.04 µg/mL (≈ 0.0445 µM) | 0.04 µg/mL (≈ 0.0445 µM) | > 10 µg/mL | 0.08 µg/mL (≈ 0.0891 µM) | 1.25 µg/mL (≈ 1.39 µM) | 0.008 µg/mL (≈ 0.00891 µM) |  |  |  |  |  |
| CCCOc1c(N2CCCC2)ccc2nc3c4c5c6c(C)c(O)c4c(=O)c(c-3oc12)NC(=O)C(C)=CC=CC(C)C(O)C(C)C(O)C(C)C(OC(C)=O)C(C)C(OC)C=COC(C)(O6)C5=O (stereo not drawn) [Derivative No. 9] |  |  | > 10 µg/mL | 0.08 µg/mL (≈ 0.0877 µM) | 0.04 µg/mL (≈ 0.0439 µM) | > 10 µg/mL | 0.08 µg/mL (≈ 0.0877 µM) | 1.25 µg/mL (≈ 1.37 µM) | 0.035 µg/mL (≈ 0.0384 µM) |  |  |  |  |  |
| CCOc1c(N2CCN(C)CC2)ccc2nc3c4c5c6c(C)c(O)c4c(=O)c(c-3oc12)NC(=O)C(C)=CC=CC(C)C(O)C(C)C(O)C(C)C(OC(C)=O)C(C)C(OC)C=COC(C)(O6)C5=O (stereo not drawn) [Derivative No. 5] |  |  | 2.5 µg/mL (≈ 2.7 µM) | ≤ 0.02 µg/mL | ≤ 0.02 µg/mL | 2.5 µg/mL (≈ 2.7 µM) | ≤ 0.02 µg/mL | 1.25 µg/mL (≈ 1.35 µM) | 0.035 µg/mL (≈ 0.0378 µM) |  |  |  |  |  |
| COc1c(N2CCN(CC(C)C)CC2)ccc2nc3c4c5c6c(C)c(O)c4c(=O)c(c-3oc12)NC(=O)C(C)=CC=CC(C)C(O)C(C)C(O)C(C)C(OC(C)=O)C(C)C(OC)C=COC(C)(O6)C5=O (stereo not drawn) [Derivative No. 3] |  |  | > 10 µg/mL | 0.08 µg/mL (≈ 0.0838 µM) | ≤ 0.02 µg/mL | > 10 µg/mL | 0.04 µg/mL (≈ 0.0419 µM) | 1.25 µg/mL (≈ 1.31 µM) | 0.017 µg/mL (≈ 0.0178 µM) |  |  |  |  |  |

Reference: patent publication US4965261A, “Substituted benzoxazinorifamycin derivative and antibacterial agent containing the same” (Kanegafuchi Kagaku Kogyo Kabushiki Kaisha, priority 1988, dated 1990)
